# Data: EP0592876A1, “Antimycotic dermatological and cosmetic compositions” (Beiersdorf Aktiengesellschaft, priority 1992, dated 1994)
# Test system: Pityrosporum ovale
# Experiment: agar diffusion inhibition-zone test (Hemmhof-Test)
# Assay type: cell-based
# Protocol: TY-Medium 10 g Trypton + 5 g Hefeextrakt + 10 g NaCl, aufgelöst in 1000 ml H₂O, gepuffert auf pH 7,4 , autoklaviert. Testverbindung 1: Polyoxyethylen-20-stearylether Testverbindung 2: Polyoxyethylen-20-isostearylalkohol Testverbindung 3: Polyoxyethylen-21-stearylalkohl Testverbindung 4: Polyoxyethylen-5-cetyl/stearylether Testverbindung 5: Polyoxyethylen-25-Fettalkohol Testverbindung 6: Polyoxyethylen-6-cetyl/stearylether Testverbindung 7: Polyoxyethylen-C₁₂-C₁₅-Alkylether Pityrosporum ovale, isoliert von drei Patienten mit Pityrosporum-Follikulitis, Pityriasis versicolor oder seborrhoischem Ekzem wurde in einer Mischung aus 50 % TY-Medium, 30 % Olivenöl und 20 % Tween 80 suspendiert. Die drei verschiedenen Hefestämme wurden in drei parallelen Ansätzen auf einer Selektivagarplatte für pathogene Pilze (Merck AG, Darmstadt) gleichmäßig ausgespatelt. Mit Hilfe steriler Korkbohrer wurden in jede Platte mehrere kreisrunde Vertiefungen gestanzt, In die Vertiefungen mit einem Durchmesser von 5 mm wurden jeweils 25 µl der Testlösungen gegeben. Die Testlösungen stellten 1%-ige und 10%-ige Lösungen der Testsubstanzen in Ethanol dar.
# Nach dreistündiger Inkubation bei 37° C wurde das verdunstete Lösungsmittel durch je 25 µl Jojobaöl ersetzt und die Platten anschließend unter Beibehaltung der Wachstumsbedingungen drei Tage inkubiert. Während dieser Zeit diffundierten die Testsubstanzen in den die Vertiefungen umgebenden Nährboden.
# Antimycotisch wirksame Testverbindungen zeigten nach dreitägiger Inkubation einen mehr oder weniger deutlichen konzentrischen Hemmhof um die Vertiefungen. Die Größe dieser Hemmhöfe, wiedergegeben in Tabelle 1, ist bei vergleichbarer Substanzkonzentration ein Maß für die antimycotische Wirksamkeit der Testverbindungen. Tabelle 1
# Testverbindung 8 : Polyoxyethylen-[…]-Dodecylether Testverbindung 9 : Polyoxyethylen-20-Stearylether Testverbindung 10: Polyoxyethylen-20-isostearylalkohol Testverbindung 11: Polyoxyethylen-21-stearylalkohol Testverbindung 12: Polyoxyethylen-5-Cetyl/stearylether Testverbindung 13: Polyoxyethylen-25-Fettalkohol Testverbindung 14: Polyoxyethylen-6-Cetyl/Stearylether + Stearylalkohol Testverbindung 15: Polyoxyethylen-C₁₂-C₁₅-Alkylether Von den Testverbindungen 8 - 15 wurden ethanolische Lösungen der Konzentrationen 0,5 %, 1,0 %, 5,0 % und 10,0 % hergestellt und in den Hemmhof-Test eingeführt. Die Versuchsdurchführung entspricht in ihrem Ablaufe dem zu Versuch 1 geschilderten. Die Größe der betreffenden Hemmhöfe ist in Tabelle 2 wiedergegeben. Tabelle 2
# [1] = Versuch 2, Konz. 0,5 % ethanolic solution, procedure as Versuch 1
# [2] = Versuch 2, Konz. 1,0 % ethanolic solution, procedure as Versuch 1
# [3] = Versuch 2, Konz. 5,0 % ethanolic solution, procedure as Versuch 1
# [4] = Versuch 2, Konz. 10,0 % ethanolic solution, procedure as Versuch 1
# [5] = Versuch 1, 1%-ige Lösung in Ethanol, 25 µl per 5 mm well, three days incubation at 37° C, three strains isolated from patients
# [6] = Versuch 1, 10%-ige Lösung in Ethanol, 25 µl per 5 mm well, three days incubation at 37° C, three strains isolated from patients
substance,measurement,setting,value
Polyoxyethylen-5-Cetyl/stearylether [Testlösung 12],mittlerer Hemmhof-Durchmesser,[1],"11,0 mm"
same,mittlerer Hemmhof-Durchmesser,[2],"14,0 mm"
same,mittlerer Hemmhof-Durchmesser,[3],"16,5 mm"
same,mittlerer Hemmhof-Durchmesser,[4],"16,5 mm"
Polyoxyethylen-5-cetyl/stearylether [Testlösung 4],mittlerer Hemmhof-Durchmesser,[5],"8,5 mm"
same,mittlerer Hemmhof-Durchmesser,[6],"9,5 mm"
Polyoxyethylen-6-cetyl/stearylether [Testlösung 6],mittlerer Hemmhof-Durchmesser,[5],"9,5 mm"
same,mittlerer Hemmhof-Durchmesser,[6],"14,0 mm"
Polyoxyethylen-20-Stearylether [Testlösung 9],mittlerer Hemmhof-Durchmesser,[1],"10,7 mm"
same,mittlerer Hemmhof-Durchmesser,[2],"14,0 mm"
same,mittlerer Hemmhof-Durchmesser,[3],"18,7 mm"
same,mittlerer Hemmhof-Durchmesser,[4],"20,7 mm"
Polyoxyethylen-20-isostearylalkohol [Testlösung 2],mittlerer Hemmhof-Durchmesser,[5],"11,0 mm"
same,mittlerer Hemmhof-Durchmesser,[6],"12,0 mm"
Polyoxyethylen-20-isostearylalkohol [Testlösung 10],mittlerer Hemmhof-Durchmesser,[1],"9,0 mm"
same,mittlerer Hemmhof-Durchmesser,[2],"9,0 mm"
same,mittlerer Hemmhof-Durchmesser,[3],"15,0 mm"
same,mittlerer Hemmhof-Durchmesser,[4],"17,3 mm"
Polyoxyethylen-20-stearylether [Testlösung 1],mittlerer Hemmhof-Durchmesser,[5],"10,0 mm"
same,mittlerer Hemmhof-Durchmesser,[6],"15,5 mm"
Polyoxyethylen-21-stearylalkohl [Testlösung 3],mittlerer Hemmhof-Durchmesser,[5],"7,0 mm"
same,mittlerer Hemmhof-Durchmesser,[6],"11,0 mm"
Polyoxyethylen-21-stearylalkohol [Testlösung 11],mittlerer Hemmhof-Durchmesser,[1],"10,0 mm"
same,mittlerer Hemmhof-Durchmesser,[2],"11,7 mm"
same,mittlerer Hemmhof-Durchmesser,[3],"12,0 mm"
same,mittlerer Hemmhof-Durchmesser,[4],"12,7 mm"
Polyoxyethylen-25-Fettalkohol [Testlösung 5],mittlerer Hemmhof-Durchmesser,[5],"7,0 mm"
same,mittlerer Hemmhof-Durchmesser,[6],"13,0 mm"
Polyoxyethylen-25-Fettalkohol [Testlösung 13],mittlerer Hemmhof-Durchmesser,[1],"10,0 mm"
same,mittlerer Hemmhof-Durchmesser,[2],"11,5 mm"
same,mittlerer Hemmhof-Durchmesser,[3],"15,7 mm"
same,mittlerer Hemmhof-Durchmesser,[4],"18,3 mm"
Polyoxyethylen-??-Dodecylether [Testlösung 8],mittlerer Hemmhof-Durchmesser,[1],"14,0 mm"
same,mittlerer Hemmhof-Durchmesser,[2],"15,5 mm"
same,mittlerer Hemmhof-Durchmesser,[3],"18,0 mm"
same,mittlerer Hemmhof-Durchmesser,[4],"20,7 mm"
Polyoxyethylen-C₁₂-C₁₅-Alkylether [Testlösung 7],mittlerer Hemmhof-Durchmesser,[5],"9,5 mm"
same,mittlerer Hemmhof-Durchmesser,[6],"15,0 mm"
Polyoxyethylen-C₁₂-C₁₅-Alkylether [Testlösung 15],mittlerer Hemmhof-Durchmesser,[1],"9,0 mm"
same,mittlerer Hemmhof-Durchmesser,[2],"12,7 mm"
same,mittlerer Hemmhof-Durchmesser,[3],"17,0 mm"
same,mittlerer Hemmhof-Durchmesser,[4],"20,0 mm"
